{"source": "patent US8933113B2", "about": "(Merck Sharp & Dohme Corp., priority 2011, dated 2015)"}
{"biological_target": "T1, full-length human Mineralocorticoid Receptor (MR) (Homo sapiens, UniProt P08235)", "T1 construct": "host or cells: PathHunter CHO-K1 cells", "T1 sequence (P08235 1-984)": "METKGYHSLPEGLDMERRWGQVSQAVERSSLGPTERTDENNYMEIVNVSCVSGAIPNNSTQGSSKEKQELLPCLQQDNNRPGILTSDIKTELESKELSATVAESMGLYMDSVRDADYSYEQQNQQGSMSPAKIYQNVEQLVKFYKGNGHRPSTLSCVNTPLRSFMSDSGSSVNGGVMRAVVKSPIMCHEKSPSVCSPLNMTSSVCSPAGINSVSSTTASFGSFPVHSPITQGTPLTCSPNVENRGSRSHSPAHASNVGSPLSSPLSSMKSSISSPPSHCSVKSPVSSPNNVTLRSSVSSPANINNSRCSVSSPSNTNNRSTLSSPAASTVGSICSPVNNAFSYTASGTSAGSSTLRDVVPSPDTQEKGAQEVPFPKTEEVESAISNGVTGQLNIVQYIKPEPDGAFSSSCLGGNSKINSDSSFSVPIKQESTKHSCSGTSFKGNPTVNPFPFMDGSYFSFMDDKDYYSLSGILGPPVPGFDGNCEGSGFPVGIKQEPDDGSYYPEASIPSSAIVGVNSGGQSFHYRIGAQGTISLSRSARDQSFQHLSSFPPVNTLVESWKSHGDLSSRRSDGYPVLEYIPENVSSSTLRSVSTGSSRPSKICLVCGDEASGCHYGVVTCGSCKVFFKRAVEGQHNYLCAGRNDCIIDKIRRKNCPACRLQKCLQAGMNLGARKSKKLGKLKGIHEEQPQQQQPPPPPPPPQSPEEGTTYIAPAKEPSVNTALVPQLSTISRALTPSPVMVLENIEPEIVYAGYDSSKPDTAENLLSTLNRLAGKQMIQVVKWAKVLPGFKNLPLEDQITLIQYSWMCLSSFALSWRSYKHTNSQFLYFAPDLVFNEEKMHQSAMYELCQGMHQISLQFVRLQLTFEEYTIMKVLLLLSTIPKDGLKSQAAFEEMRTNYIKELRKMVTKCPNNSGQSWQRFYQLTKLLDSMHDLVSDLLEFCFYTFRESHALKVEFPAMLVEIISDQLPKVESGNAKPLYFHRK", "assay": "human MR NH Pro assay (PathHunter Protein:Protein interaction assay), MR antagonist activity", "assay_type": "cell-based", "details": "PathHunter CHO-K1 cells overexpressing human MR; aldosterone about 0.3 nM; 6 hours at 37° C.; luminescence; read-out: Primary Assay IP rating (IP = inflection point for a given dose-response titration curve)", "summary_of_the_method": "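PathHunter enzyme-complementation assay in cells of full-length human MR recruitment of a coactivator peptide, run in antagonist mode against aldosterone at about 0.3 to 1.0 nM final. Compounds are in a 10-point, 1:3 series from a 4.4 mM top. Incubation is 6 h at 37° C, then detection reagent for 1 h at RT, with a luminescence read-out.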", "units": {"IC50": "nM"}}
{"molecule": "CCC(c1ccc(C(F)(F)F)cc1)(C(C)O)n1ncc2c(NS(C)(=O)=O)cccc21", "note": "(single isomer, unassigned) [Compound 116, N-(1-(2-hydroxy-3-(4-(trifluoromethyl)phenyl)pentan-3-yl)-1H-indazol-4-yl)methanesulfonamide]", "IC50": "< 100"}
{"molecule": "CS(=O)(=O)Nc1cccc2c1ccn2C1(c2ccc(Cl)cc2)CCNC1=O", "note": "(centres unmarked) [Compound 84, N-{1-[3-(4-chlorophenyl)-2-oxopyrrolidin-3-yl]-1H-indol-4-yl}methanesulfonamide]", "IC50": "100 to 500"}
{"molecule": "CCn1ncc(C(CC)(c2ccc(Cl)cc2)n2ccc3c(NS(C)(=O)=O)cccc32)n1", "note": "(centres unmarked) [Compound 152, N-(1-(1-(4-chlorophenyl)-1-(2-ethyl-2H-1,2,3-triazol-4-yl)propyl)-1H-indol-4-yl)methanesulfonamide]", "IC50": "< 100"}
{"molecule": "CCC(CCC#N)(c1ccc(Cl)cc1)n1ccc2c(NS(C)(=O)=O)cc(F)cc21", "note": "(single isomer, unassigned) [Compound 143, N-(1-(3-(4-chlorophenyl)-1-cyanopentan-3-yl)-6-fluoro-1H-indol-4-yl)methanesulfonamide]", "IC50": "< 100"}
{"molecule": "CCC(/C=C/C#N)(c1ccc(OC)cc1)n1ccc2c(NS(C)(=O)=O)cccc21", "note": "(centres unmarked) [Compound 128, (E)-N-(1-(1-cyano-3-(4-methoxyphenyl)pent-1-en-3-yl)-1H-indol-4-yl)methanesulfonamide]", "IC50": "< 100"}
{"molecule": "CCC(c1ccc(Cl)cc1)(C1CC1C#N)n1ncc2c(NS(C)(=O)=O)cccc21", "note": "(centres unmarked) [Compound 120, N-(1-(1-(4-chlorophenyl)-1-(2-cyanocyclopropyl)propyl)-1H-indazol-4-yl)methanesulfonamide]", "IC50": "< 100"}
{"molecule": "CCC(CCC(=O)OC)(c1ccc(Cl)cc1)n1ncc2c(NS(C)(=O)=O)cccc21", "note": "(centres unmarked) [Compound 168, methyl 4-(4-chlorophenyl)-4-(4-(methylsulfonamido)-1H-indazol-1-yl)hexanoate]", "IC50": "< 100"}
{"molecule": "CCC(CCOC)(c1ccc(Cl)cc1)n1ccc2c(NS(C)(=O)=O)cccc21", "note": "(centres unmarked) [Compound 165, N-(1-(3-(4-Chlorophenyl)-1-methoxypentan-3-yl)-1H-indol-4-yl)methanesulfonamide]", "IC50": "< 100"}
{"molecule": "COC(=O)C(c1ccc(F)cc1Cl)n1ccc2cc(F)ccc21", "note": "(centres unmarked) [Compound 13, methyl (2-chloro-4-fluorophenyl)(5-fluoro-1H-indol-1-yl)acetate]", "IC50": "500 to 5000"}
{"molecule": "CCC(COC)(c1ccc(Cl)cc1)n1ccc2c(NS(C)(=O)=O)cccc21", "note": "(single isomer, unassigned) [Compound 96, N-(1-(2-(4-chlorophenyl)-1-methoxybutan-2-yl)-1H-indol-4-yl)methanesulfonamide]", "IC50": "< 100"}
{"molecule": "CCC(c1ccc(Cl)cc1)(C(O)COC)n1ccc2c(NS(C)(=O)=O)cccc21", "note": "(centres unmarked) [Compound 173, N-(1-(3-(4-chlorophenyl)-2-hydroxy-1-methoxypentan-3-yl)-1H-indol-4-yl)methanesulfonamide]", "IC50": "100 to 500"}
{"molecule": "CNC(=O)C(CC#N)(c1ccc(Cl)cc1)n1ccc2c(NS(C)(=O)=O)cccc21", "note": "(centres unmarked) [Compound 53, 2-(4-chlorophenyl)-3-cyano-N-methyl-2-{4-[(methylsulfonyl)amino]-1H-indol-1-yl}propanamide]", "IC50": "100 to 500"}
{"molecule": "CCC(C=C(C)C#N)(c1ccc(Cl)cc1)n1ccc2c(NS(C)(=O)=O)cccc21", "note": "(mixture of isomers) [Compound 131, N-(1-(3-(4-chlorophenyl)-5-cyanohex-4-en-3-yl)-1H-indol-4-yl)methanesulfonamide]", "IC50": "< 100"}
{"molecule": "CCC(C(=O)CC#N)(c1ccc(Cl)cc1)n1ccc2c(NS(C)(=O)=O)cccc21", "note": "(single isomer, unassigned) [Compound 146, N-(1-(3-(4-Chlorophenyl)-1-cyano-2-oxopentan-3-yl)-1H-indol-4-yl)methanesulfonamide]", "IC50": "< 100"}
{"molecule": "CCC(c1ccc(Cl)cc1)(c1nnc(-c2cc(F)cc(F)c2)o1)n1ccc2c(NS(C)(=O)=O)cccc21", "note": "(centres unmarked) [Compound 75, N-(1-{1-(4-chlorophenyl)-1-[5-(3,5-difluorophenyl)-1,3,4-oxadiazol-2-yl]propyl}-1H-indol-4-yl)methanesulfonamide]", "IC50": "500 to 5000"}
{"molecule": "CC[C@@](c1ccc(Cl)cc1)(c1nnc(C2CC2)o1)n1ccc2c(NS(C)(=O)=O)cccc21", "note": "[Compound 67, (R)—N-{1-[1-(4-chlorophenyl)-1-(5-cyclopropyl-1,3,4-oxadiazol-2-yl)propyl]-1H-indol-4-yl}methanesulfonamide]", "IC50": "100 to 500"}
{"molecule": "CCC(CC(F)(F)F)(c1ccc(Cl)cc1)n1ncc2c(NS(C)(=O)=O)cccc21", "note": "(centres unmarked) [Compound 159, N-(1-(3-(4-chlorophenyl)-1,1,1-trifluoropentan-3-yl)-1H-indazol-4-yl)methanesulfonamide]", "IC50": "< 100"}
{"molecule": "COC(=O)C(c1ccc(OC)cc1)n1ccc2c([N+](=O)[O-])cccc21", "note": "(centres unmarked) [Compound 5, methyl (4-methoxyphenyl)(4-nitro-1H-indol-1-yl)acetate]", "IC50": "500 to 5000"}
{"molecule": "COC(=O)C(c1ccc(Cl)cc1Cl)n1ccc2c([N+](=O)[O-])cccc21", "note": "(centres unmarked) [Compound 3, methyl (2,4-dichlorophenyl)(4-nitro-1H-indol-1-yl)acetate]", "IC50": "100 to 500"}
{"molecule": "COC(=O)C(c1ccc(F)cc1Cl)n1ccc2ccc(Cl)cc21", "note": "(centres unmarked) [Compound 14, methyl (2-chloro-4-fluorophenyl)(6-chloro-1H-indol-1-yl)acetate]", "IC50": "500 to 5000"}
{"molecule": "CCC(CCO)(c1ccc(Cl)cc1)n1ccc2c(NS(C)(=O)=O)cccc21", "note": "(single isomer, unassigned) [Compound 161, N-(1-(3-(4-Chlorophenyl)-1-hydroxypentan-3-yl)-1H-indol-4-yl)methanesulfonamide]", "IC50": "< 100"}
{"molecule": "CCC(c1ccc(Cl)cc1)(c1nc(C(N)=O)no1)n1ncc2c(NS(C)(=O)=O)cccc21", "note": "(centres unmarked) [Compound 157, 5-(1-(4-chlorophenyl)-1-(4-(methylsulfonamido)-1H-indazol-1-yl)propyl)-1,2,4-oxadiazole-3-carboxamide]", "IC50": "100 to 500"}
{"molecule": "COC(=O)C(c1ccc(F)cc1Cl)n1ccc2cc(Cl)ccc21", "note": "(centres unmarked) [Compound 12, methyl (2-chloro-4-fluorophenyl)(5-chloro-1H-indol-1-yl)acetate]", "IC50": "500 to 5000"}
{"molecule": "CS(=O)(=O)Nc1cccc2c1ccn2C(CC#N)(C(=O)NCC(F)(F)F)c1ccc(Cl)cc1", "note": "(centres unmarked) [Compound 55, 2-(4-chlorophenyl)-3-cyano-2-{4-[(methylsulfonyl)amino]-1H-indol-1-yl}-N-(2,2,2-trifluoroethyl)propanamide]", "IC50": "100 to 500"}
{"molecule": "COC(=O)C(c1ccc(F)cc1Cl)n1ccc2c([N+](=O)[O-])cccc21", "note": "(centres unmarked) [Compound 2, methyl (2-chloro-4-fluorophenyl)(4-nitro-1H-indol-1-yl)acetate]", "IC50": "100 to 500"}
{"molecule": "COC(=O)C(c1ccc(F)cc1Cl)n1ccc2cccc(OCc3ccccc3)c21", "note": "(centres unmarked) [Compound 16, methyl [7-(benzyloxy)-1H-indol-1-yl](2-chloro-4-fluorophenyl)acetate]", "IC50": "500 to 5000"}
{"molecule": "CCC(c1ccc(Cl)cc1)(c1nnc(-c2ccc(OC)cc2)o1)n1ccc2c(NS(C)(=O)=O)cccc21", "note": "(centres unmarked) [Compound 74, N-(1-{1-(4-chlorophenyl)-1-[5-(4-methoxyphenyl)-1,3,4-oxadiazol-2-yl]propyl}-1H-indol-4-yl)methanesulfonamide]", "IC50": "100 to 500"}
{"molecule": "CCC(CCC#N)(c1ccc(Cl)cc1)n1ccc2c(NS(C)(=O)=O)cc(F)cc21", "note": "(single isomer, unassigned) [Compound 142, N-(1-(3-(4-chlorophenyl)-1-cyanopentan-3-yl)-6-fluoro-1H-indol-4-yl)methanesulfonamide]", "IC50": "< 100"}
{"molecule": "CC[C@@](c1ccc(Cl)cc1)(c1noc(C)n1)n1ccc2c(NS(C)(=O)=O)cccc21", "note": "[Compound 57]", "IC50": "< 100"}
{"molecule": "CCC(CCC#N)(c1ccc(Cl)cc1)n1ncc2c(NS(C)(=O)=O)cc(F)cc21", "note": "(centres unmarked) [Compound 145, N-(1-(3-(4-chlorophenyl)-1-cyanopentan-3-yl)-6-fluoro-1H-indazol-4-yl)methanesulfonamide]", "IC50": "< 100"}
{"molecule": "CCc1noc(C(CC)(c2ccc(Cl)cc2)n2ccc3c(NS(C)(=O)=O)cccc32)n1", "note": "(single isomer, unassigned) [Compound 151, N-(1-(1-(4-chlorophenyl)-1-(3-ethyl-1,2,4-oxadiazol-5-yl)propyl)-1H-indol-4-yl)methanesulfonamide]", "IC50": "< 100"}
{"molecule": "CCC(CCC(C)=O)(c1ccc(Cl)cc1)n1ncc2c(NS(C)(=O)=O)cccc21", "note": "(centres unmarked) [Compound 172, N-(1-(3-(4-chlorophenyl)-6-oxoheptan-3-yl)-1H-indazol-4-yl)methanesulfonamide]", "IC50": "< 100"}
